In patent US7579016B2, “Methods for repelling arthropods using isolongifolenone analogs” (The United States of America as represented by the …, priority 2007, dated 2009):

Columns and labels:
Ixodes scapularis nymphs = assay: fingertip tick repellency bioassay (treated cloth strip around finger); assay type: in vivo; conditions: for I. scapularis nymphs repelled: FIG. 4
Source text: (§1) Tick Bioassay: Blacklegged tick (Ixodes scapularis) nymphs were reared from larvae obtained from the laboratory colony at Oklahoma State University, Stillwater, Okla., and fed on rats (Beltsville Area Animal Care and Use Committee Protocol #05-0122) at the U.S. Department of Agriculture (USDA), Agricultural Research Service (ARS), Beltsville Agricultural Research Center, Beltsville, Md. Lone star tick (Amblyomma americanum) nymphs were obtained from a colony at the USDA, ARS, Knipling-Bushland U.S. Livestock Insects Research Laboratory, Kerrville, Tex. Both species of ticks were maintained at 24° C.; ˜97% RH and 16:8 h LD until testing.
(§2) The fingertip bioassay used by Schreck et al. (Schreck, C. E., et al., J. Am. Mosq. Control Assoc., 11: 136-140 (1995)) was modified (Carroll, J. F., et al., Exp. Appl. Acarol., 41: 215-224 (2007); Carroll, J. F., et al., Med. Vet. Entomol., 19:101-106 (2005)) by applying treatments to the outer layer of a strip of cloth (organdy) later doubly wrapped around the middle phalanx of an index finger. A 7×7 […] strip of organdy cloth (G Street Fabrics, Rockville, Md.) was cut in the shape of a hockey stick (9 cm long section, 4.5 cm short section, 4-4.5 cm wide) so that when the cloth was wrapped twice around the middle phalanx of the index finger it completely covered the area between the deepest creases of the distal and middle joints of the finger of a volunteer subject. The cloth extended 5-6 mm proximally beyond the deepest crease of the middles joint and overlapped 1-3 mm. With the strip of cloth in place, the boundaries of the area to receive the repellent treatment area (between the deepest creases of the distal and middle joints) were marked on the cloth with a lead pencil. This cloth was used as a template for tracing the boundaries on other cloths.
(§3) Stoichiometrically equivalent stock 95% ethanol solutions of the compounds were prepared: 50 nmol Deet/μL and 50 nmol isolongifolenone or isolongifolenone analog/μL for use in all bioassays. The volumes of the respective solutions used to generate 155 nmole repellent doses/cm^2 cloth were based on the dimensions of the middle phalanx of the left index finger of a volunteer subject. The volume of the treated solutions required to give the desired nmoles/cm^2 cloth dosages was calculated from the average of the circumferences of the two finger joints multiplied by the distance between the deepest crease of each joint.
(§4) A repellent solution (52 μL) or ethanol (control) of the same volume was applied to the designated treatment area on the cloth and allowed to dry. As with Schreck et al. (1995), it was necessary to screen I. scapularis nymphs for active individuals. While the treated cloth dried, I. scapularis nymphs were transferred by forceps from a holding vial to a finger. Ten ticks that crawled ≧5 mm were sequestered in a Petri dish that had been glued inside a larger Petri dish with water added to the space between their sides to form a moat. After the cloth dried (10-12 min), it was wrapped twice around the index finger. To keep the cloth wrapped around the finger, three small dabs of beeswax were smeared on the upper surface of the inner layer of cloth at the edge of the overlap and pressure applied for 10 s. Using forceps, the 10 selected ticks were placed on the tip of the horizontally held finger between the nail and the edge of the cloth. When the tenth tick was placed on the finger, the finger was slowly tipped vertically with the tip downward. The locations of the ticks were recorded at 1, 3, 5, 10 and 15 min after their release on the finger. […] For both species, the finger was held over moated Petri dishes while ≧1 tick was on it. During bioassays temperatures ranged from 23°-26° C. and 10-56% RH. The repellent data were compared by paired samples t-test (SPSS 10.0 for Windows for significance at α=0.05 level, George, D., and P. Mallery, SPSS for Windows step by step: A simple guide and reference, 4th ed., 2002, Allyn & Bacon, Boston, Mass.). […]

Anopheles stephensi = assay: in vitro K&D module mosquito biting-deterrent bioassay; assay type: in vivo; conditions: 25 nmol/cm^2 cloth; 3-minute exposure; 200 females; FIG. 2
Source text: (§5) Mosquito Bioassay: Yellowfever mosquito, Aedes aegypti (red eye Liverpool strain) and malarial vector mosquito, Anopheles stephensi used in the study were from colonies maintained at the Walter Reed Army Institute of Research, Department of Entomology, Silver Spring, Md. The mosquitoes were reared using the procedure of Gerberg et al. (Gerberg, E. J., et al., Manual for mosquito rearing and experimental techniques, 1994, AMCA Inc., Lake Charles, La.). Larvae were fed ground tropical fish flakes (Tetramin Tropical Fish Flakes, Tetra Sales, Blacksburg, Va., wwv.tetra-fish.com). Colonies were maintained in a photoperiod of 12:12 h (L:D with lights on at 0600 h) at 27° C. and 80% RH. Adult mosquitoes were supplied with cotton pads moistened with 10% aqueous sucrose solution.
(§6) The comparative mosquito biting-deterrent activity of isolongifolenone and Deet was evaluated using the mosquitoes A. degypti and An. stephensi. Isolongifolenone was synthesized as described earlier. The well known and widely used synthetic repellent chemical Deet (McCabe, E. T., et al., J. Org. Chem., 19: 493-498 (1954)) was purchased from Morflex, Inc., Greensboro, N.C. Deet is often considered to be the best mosquito repellent ever developed (Elston, D. M., J. Am. Acad. Dermatol., 36: 644-645 (1998)) and is used as a gold standard to which new candidate repellents are compared. A comparative bioassay of the two compounds was conducted by using the in vitro K&D module bioassay system (Klun et al., 2005). The K&D in vitro assay system consists of three components: (1) A Plexiglas™ 29.7 cm×7.1 cm K&D module composed of six adjacent cells each designed to hold mosquitoes and each having a rectangular 3×4 cm floor hole that opened and closed by a sliding door. (2) A Plexiglas™ six-well 29.7 cm×7.1 cm water water-bath warmed (38° C.) reservoir with six 3×4 cm wells designed to match the sliding-door openings of the K&D module base and to contain 6 mL warmed human red blood cells. The wells were covered with a collagen membrane (the blood cell-membrane unit simulated a human host for mosquito feeding). (3) A 29.7×7.1 cm×0.4 cm Teflon® separator having six rectangular openings like the K&D module. In the study, test compounds in 95% ethanol solution were applied to 3×4 cm cloth areas marked with ink pen on a 29.7-cm×7.1 cm strip of organdy cloth. We routinely applied ethanol solutions (115 μL) 0.5 cm outside of the 3×4 marked cloth areas to ensure that mosquitoes were never exposed to any area of untreated cloth. […] The Teflon® separator was placed over the treated cloth. The function of the separator was to prevent direct contact of the K&D module with chemically treated cloth. A bioassay replicate consisted of three treatments: isolongifolenone, Deet, and 95% ethanol treated cloth as control. We used two replicates with treatments randomly positioned over the six-cells of a reservoir.
(§7) The mosquito bioassays were conducted With the in vitro K&D module systems positioned in a Purair ductless chemical fume hood (Air Science USA, LLC, Fort Myers, Fla.) from 1300-1600 h over days at 24°-26° C. and 24-51%, RH in ambient laboratory light. Mated nulliparous A. aegypti and A. stephensi (5-15 d old) were tested, and they had no water 24 h before testing. Mosquitoes were loaded into each of six adjacent K&D module cells and promptly after loading they were exposed to 2 replicates of the three treatments on the organdy cloth. Routinely, a six-celled K&D module containing five mosquitoes/cell was positioned on the Teflon® separator over air-dried cloth treatments covering the blood-membrane wells, and trap doors of the K&D modules were opened to expose-the treatments to the sets of mosquitoes. After a 3-minute exposure, the number of mosquitoes biting through cloth treatments in each cell was recorded and mosquitoes were prodded back into the cells. […]

Aedes aegypti = assay: as above; assay type: in vivo; conditions: for proportion of mosquitoes not biting (biting deterrence): 3-minute exposure, 200 females, FIG. 2; for proportion of mosquitoes deterred, dose-response assay: FIG. 3
Source text: as §5, §6, §7

mosquito = conditions: 25 nmol compound/cm^2, applied to human skin or cloth; cited from earlier work
[1] = tested on: Amblyomma americanum nymphs; assay: fingertip tick repellency bioassay (treated cloth strip around finger); assay type: in vivo; conditions: A. americanum nymphs; 155 nmol/cm^2 cloth; 10 min after release on finger
Source text: as §1, §2, §3, §4

SMILES	I. scapularis nymphs repelled (Ixodes scapularis nymphs; 19.5 nmole/cm^2 cloth) [%]	I. scapularis nymphs repelled (Ixodes scapularis nymphs; 39 nmole/cm^2 cloth) [%]	I. scapularis nymphs repelled (Ixodes scapularis nymphs; 78 nmole/cm^2 cloth) [%]	proportion of mosquitoes not biting (biting deterrence) (Anopheles stephensi)	proportion of mosquitoes not biting (biting deterrence) (Aedes aegypti; 25 nmol/cm^2 cloth)	proportion of mosquitoes not biting (analog comparison) (Aedes aegypti; 25 nmol/cm^2 cloth, 100 mosquitoes per compound, FIG. 6)	suppression of mosquito biting compared to controls (mosquito)	Proportion Repelled [1]	Proportion Repelled (Ixodes scapularis nymphs; I. scapularis nymphs, 155 nmol/cm^2 cloth, 10 min after release on finger)	proportion of mosquitoes deterred, dose-response assay (Aedes aegypti; 25 nmole compound/cm^2 cloth)	proportion of mosquitoes deterred, dose-response assay (Aedes aegypti; 36 nmole compound/cm^2 cloth)
CCN(CC)C(=O)c1cccc(C)c1 [Deet, N,N-Diethyltoluamide, reference compound]	15	55	100	significantly greater	significantly greater	significantly greater	ca. 80%				
CC1(C)C2=CC(=O)CC(C)(C)[C@]23CC[C@H]1C3 [Isolongifolenone, (−)-isolongifolenone]	35	65	100	more effectively than Deet	more effectively than Deet			0.725	1.0	significantly greater than the proportions deterred by Deet	significantly greater than the proportions deterred by Deet
